{
  "source": "patent US12539298B2",
  "about": "“Lobinaline N-oxides as positive allosteric modulators of the dopamine transporter with potential value in the treatment of substance abuse disorders” (University of Kentucky Research Foundation, priority 2019, dated 2026)",
  "key": {"[1]": {"biological_target": "nicAChRs", "assay": "displacement of [3H]epibatidine from rat brain homogenates", "type": "binding"}, "[2]": {"biological_target": "T1, alpha4/beta2 nicAChR (Rattus norvegicus, UniProt P09483+P12390)", "T1 construct": "from tissue", "T1 sequence (P09483 31-630)": "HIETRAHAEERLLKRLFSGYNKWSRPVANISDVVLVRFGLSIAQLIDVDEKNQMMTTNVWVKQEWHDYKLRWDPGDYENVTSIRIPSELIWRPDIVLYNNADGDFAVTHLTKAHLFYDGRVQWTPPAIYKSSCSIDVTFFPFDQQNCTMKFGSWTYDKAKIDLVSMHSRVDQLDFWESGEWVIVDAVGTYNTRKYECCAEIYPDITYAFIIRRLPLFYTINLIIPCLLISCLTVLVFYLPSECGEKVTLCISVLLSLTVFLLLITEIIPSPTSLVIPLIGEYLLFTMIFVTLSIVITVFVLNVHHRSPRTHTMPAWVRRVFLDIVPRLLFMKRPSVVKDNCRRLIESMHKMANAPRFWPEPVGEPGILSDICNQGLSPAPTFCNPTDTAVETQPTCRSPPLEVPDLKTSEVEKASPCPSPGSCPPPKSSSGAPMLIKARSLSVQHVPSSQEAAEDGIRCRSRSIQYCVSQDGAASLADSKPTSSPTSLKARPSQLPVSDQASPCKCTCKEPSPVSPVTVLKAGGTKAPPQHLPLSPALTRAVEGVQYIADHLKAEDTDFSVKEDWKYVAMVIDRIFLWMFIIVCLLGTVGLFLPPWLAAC", "T1 sequence (P12390 25-500)": "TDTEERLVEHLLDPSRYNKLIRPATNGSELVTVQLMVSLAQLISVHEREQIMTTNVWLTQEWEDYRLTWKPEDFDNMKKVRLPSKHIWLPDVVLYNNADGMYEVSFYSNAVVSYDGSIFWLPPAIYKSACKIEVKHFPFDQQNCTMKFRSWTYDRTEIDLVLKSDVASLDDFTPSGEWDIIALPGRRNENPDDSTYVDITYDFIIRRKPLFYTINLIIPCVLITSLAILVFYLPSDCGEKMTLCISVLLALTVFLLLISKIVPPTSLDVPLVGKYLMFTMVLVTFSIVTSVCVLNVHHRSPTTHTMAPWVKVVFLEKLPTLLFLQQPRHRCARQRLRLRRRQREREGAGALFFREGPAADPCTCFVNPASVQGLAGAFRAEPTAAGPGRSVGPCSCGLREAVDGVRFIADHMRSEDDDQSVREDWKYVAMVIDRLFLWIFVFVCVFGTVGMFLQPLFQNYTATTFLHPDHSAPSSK", "assay": "displacement of beta2-selective radioligand [3H]cytisine", "type": "binding"}, "[3]": {"system": "nicAChR", "assay": "45Ca2+ entry into SHSY5Y cells", "type": "cell-based", "details": "conclusion from 45Ca2+ entry", "text": "Effects of lobinaline and nicotine on ^45Ca^2+ entry into SHSY5Y cells: nicAChR function can be evaluated semi-quantitatively in this cell line by measuring ^45Ca^2+ entry in response to nicotine. […] The lobinaline N-oxides have not yet been tested in this system."}, "[4]": {"system": "nicAChRs", "assay": "[3H]DA release from superfused rat striatal slices", "type": "cell-based", "details": "100 uM superfused before nicotine", "procedure": "Effects of lobinaline and nicotine on [3H]DA release from superfused rat striatal slices (ref 5): rat brain striatal slices were incubated with [3H]DA for 30 min at […] before transfer to superfusion chambers. […] To evaluate the role of nicAChRs, striatal slices preloaded with [3H]-DA were pretreated with the nicAChR antagonist mecamylamine (10 μM) prior to superfusion of lobinaline (100 μM). […] With the data above from SHSY5Y cells, this supports a partial agonist action of lobinaline at nicAChRs. The N-oxides have not yet been tested in this system. Lobinaline has weak agonist effects on nicAChRs, but also has as yet unquantified antagonist effects (i.e. it acts as a partial agonist at nicAChRs)."}, "[5]": {"biological_target": "T2, DAT (Rattus norvegicus, UniProt P23977)", "T2 sequence (P23977 whole entry)": "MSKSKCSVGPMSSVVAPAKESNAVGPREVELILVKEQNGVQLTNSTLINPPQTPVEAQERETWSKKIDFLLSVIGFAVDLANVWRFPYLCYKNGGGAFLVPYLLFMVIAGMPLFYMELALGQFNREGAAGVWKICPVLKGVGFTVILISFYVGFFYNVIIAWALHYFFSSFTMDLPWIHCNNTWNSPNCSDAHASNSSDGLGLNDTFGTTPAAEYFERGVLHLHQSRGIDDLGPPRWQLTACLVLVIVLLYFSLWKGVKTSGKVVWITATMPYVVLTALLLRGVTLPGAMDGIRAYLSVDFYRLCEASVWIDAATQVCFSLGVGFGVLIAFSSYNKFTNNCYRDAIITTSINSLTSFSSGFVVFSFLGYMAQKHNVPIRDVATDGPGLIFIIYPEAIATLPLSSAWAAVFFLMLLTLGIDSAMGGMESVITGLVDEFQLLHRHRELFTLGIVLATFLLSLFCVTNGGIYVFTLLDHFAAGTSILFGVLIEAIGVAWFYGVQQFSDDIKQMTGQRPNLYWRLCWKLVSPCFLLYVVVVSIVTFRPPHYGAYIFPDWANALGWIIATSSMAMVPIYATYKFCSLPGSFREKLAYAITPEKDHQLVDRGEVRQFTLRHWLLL", "assay": "DA clearance in striatum of anesthetized rats by in vivo electrochemistry (high-speed chronoamperometry), Example 8", "design": "DA clearance in striatum and nucleus accumbens of urethane-anesthetized SD rats; from tissue; host or cells: striatum / nucleus accumbens of living anesthetized SD rats; species or system SD rats", "procedure": "DA clearance in striatum and nucleus accumbens of urethane-anesthetized SD rats was monitored by in vivo electrochemistry using high-speed chrono-amperometry [see 36]. After obtaining reproducible signals for locally applied DA, vehicle or drug was applied slowly over 10-30 sec, then 30-60 sec later the next application of DA was made, with subsequent DA applications at 5-minute intervals for 25-30 min. The DA kinetic data from each animal was analyzed using FAST software (Quanteon). […] These effects were no longer seen 3-5 minutes after lobinaline ejection. They are consistent with simple competitive inhibition of the DAT by lobinaline. […] However, the lobinaline N-oxides produce different effects. Representative data from lobinaline N-oxide, at the same concentration used for lobinaline (1 mM in 250 nl medium) are shown in FIG. 6. […] This is entirely consistent with effects on synaptosomal [3H]DA uptake in vitro above, and probably represents competitive inhibition. However, after exposure to the N-oxide there is a significant and prolonged (c20 min) increase in the first order rate of decay of the DA peak. […] This increase in rate constant induced by the N-oxide varied from 20× to 2× at increasing depths in the DV gradient.\nThe uptake rate of locally applied DA (˜100 nl; 200 μM) was measured before and 1 minute after local application of lobinaline (˜250 nl; 1 mM), 403 (˜300 nl; 250 μM) or 419 (˜300 nl; 250 μM) (FIGS. 7, 8, and 9)."}, "[6]": {"biological_target": "T2, DAT", "assay": "dopamine uptake in striatum of isoflurane-anesthetized rats by in vivo electrochemistry, Examples 19-20", "design": "DA clearance in striatum and nucleus accumbens of urethane-anesthetized SD rats; from tissue; host or cells: striatum / nucleus accumbens of living anesthetized SD rats; species or system SD rats", "procedure": "After obtaining reproducible signals for locally applied DA (50-75 nl, 200 μM) to produce a control DA peak height below 1 uM, vehicle or drug was locally applied slowly over 10-30 sec (˜500 nl 250 μM), then 60 sec later the next application of DA was performed, with subsequent DA applications at 5-min intervals for 25 min. […] The DA kinetic data from each animal were analyzed using FAST software (Quanteon, LLC, Nicholasville KY USA). […] These parameters were compared between pre- and post-drug application by one-way ANOVA with Tukey's post hoc analysis, with significance assigned at p<0.05."}, "[7]": {"biological_target": "T3, alpha7-nicAChR (Rattus norvegicus, UniProt Q05941)", "T3 construct": "from tissue", "T3 sequence (Q05941 23-502)": "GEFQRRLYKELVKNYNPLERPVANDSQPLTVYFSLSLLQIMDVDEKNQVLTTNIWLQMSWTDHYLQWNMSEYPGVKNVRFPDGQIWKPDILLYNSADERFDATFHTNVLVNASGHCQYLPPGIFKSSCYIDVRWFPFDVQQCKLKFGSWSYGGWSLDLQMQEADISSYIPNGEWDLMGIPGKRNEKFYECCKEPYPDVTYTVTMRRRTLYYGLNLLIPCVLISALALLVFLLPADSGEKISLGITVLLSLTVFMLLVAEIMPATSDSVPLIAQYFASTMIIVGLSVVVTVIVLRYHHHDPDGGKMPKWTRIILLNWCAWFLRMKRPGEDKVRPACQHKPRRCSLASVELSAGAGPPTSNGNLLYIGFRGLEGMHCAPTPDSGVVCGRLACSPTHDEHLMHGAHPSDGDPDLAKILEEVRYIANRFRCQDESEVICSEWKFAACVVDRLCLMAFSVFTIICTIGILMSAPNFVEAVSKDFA", "assay": "displacement of [3H]-methyllycaconitine", "type": "binding", "details": "alpha7-nicAChR selective radioligand"}, "[8]": {"system": "rat striatal synaptosomes", "assay": "[3H]DA release from rat striatal synaptosomes", "type": "biochemical", "details": "preloaded synaptosomes; 10-500 uM tested; 30 min at 37° C"}, "[9]": {"assay": "aqueous solubility", "type": "physicochemical", "text": "Lobinaline (FIG. 1), was isolated from plant material and identified as the first-known binitrogenous plant alkaloid more than 80 years ago [27]. The applicants began to test its pharmacological activity after identifying Lobelia cardinalis as a novel source of nicAChR activity by high throughput screening in 2005 [26]. This plant species has no history of abuse, or traditional medicinal use of relevance to SUDs. […] These actions support lobinaline as a lead compound for the treatment of SUDs, particularly alcohol and nicotine use disorders. […] Lobinaline also appears to have appropriate pharmacokinetics and low toxicity. […] Conversely, this makes it a good test of the ability of target-directed evolution to generate novel inhibitors of the DAT in mutant plant cells.\n(§1) Lobinaline and the “mono”-N-oxide were separated from plant and culture material by acid/base extraction, but the bi-N-oxide was derived from lobinaline using 3-chloroperbenzoic acid. All these compounds were separated by column chromatography with identity and purity confirmed by LC/MS."}, "[10]": {"assay": "octanol/water partition (K octanol/water)", "type": "physicochemical", "text": "as §1"}, "[11]": {"biological_target": "T2, DAT", "assay": "[3H]GBR 12935 binding to rat striatal homogenate", "design": "from tissue; host or cells: rat striatum (synaptosomes; homogenate)"}},
  "data": [
    {"smiles": "CN1CCCC2C(c3ccccc3)C(C3=NCCCC3)C(c3ccccc3)CC21", "note": "(stereo not drawn) [lobinaline]", "values": [
      {"measurement": "Ki", "setting": "[1]", "result": 16, "unit": "µM"},
      {"measurement": "character of [3H]epibatidine displacement", "setting": "[1]", "result": "monophasically displaced"},
      {"measurement": "Ki", "setting": "[2]", "result": 1.1, "unit": "µM"},
      {"measurement": "mode of action at nicAChRs", "setting": "[3]", "result": "weak partial agonist"},
      {"measurement": "fractional [3H]DA release induced by 10 uM nicotine after test substance", "setting": "[4]", "result": "completely prevented"},
      {"measurement": "effect on DA clearance rate", "setting": "[5]; 1-minute post-application", "result": "significantly decreased"},
      {"measurement": "effect on DA peak", "setting": "[5]; local application 1 mM, 250 nl", "result": "non-significantly decreased"},
      {"measurement": "time after ejection at which effects are no longer seen / DA clearance returns to normal", "setting": "[5]; local ejection in striatum", "result": "3 to 5", "unit": "min"},
      {"measurement": "reduction in DA clearance", "setting": "[5]; striatum, 1 minute after local application (lobinaline ~250 nl 1 mM; 403, 419 ~300 nl 250 μM), FIGS. 7-9", "result": 50, "unit": "%"},
      {"measurement": "release of endogenous DA", "setting": "[6]; any brain region, n=8-36", "result": "Neither lobinaline nor its N-oxides ever caused release of endogenous DA"},
      {"measurement": "effect on DA clearance parameters", "setting": "[6]; relative to % control", "result": "small, but significant, reduction in all DA clearance parameters"},
      {"measurement": "effect on amplitude of the DA signal", "setting": "[6]; single local application ~500 nl 250 μM, striatum, FIGS. 10, 11", "result": "transient, a non-significant decrease in amplitude"},
      {"measurement": "Ki", "setting": "[7]", "result": 15, "unit": "µM"},
      {"measurement": "concentration causing significant release of [3H]DA", "setting": "[8]", "result": 500, "unit": "µM"},
      {"measurement": "aqueous solubility", "setting": "[9]", "result": "very low aqueous solubility"},
      {"measurement": "K octanol/water (Ko/w)", "setting": "[10]", "result": 4.8},
      {"measurement": "extent of displacement of [3H]GBR 12935", "setting": "[11]", "result": "completely displaced"},
      {"measurement": "Ki", "setting": "[11]; read-out: Ki, displacement of [3H]GBR 12935", "result": 2.54, "unit": "µM"}
    ]}
  ]
}
